Measurements as given in patent publication US20240043444A1, “METHODS FOR TREATING SPINOCEREBELLAR ATAXIA TYPE 3” (PTC Therapeutics, Inc., priority 2021, published 2024).

Legend:
[1] = test system: Endogenous Total ATXN3 (tATXN3) Protein; assay: Endogenous Total ATXN3 (tATXN3) Protein Assay (MSD immunoassay of cell lysates); assay type: cell-based; conditions: cells incubated with compound 48 h; 7-point concentration curve; MSD plate readout
Method: Meso Scale Discovery (MSD) 96-well or 384-well plates were coated overnight at 4° C. with Ataxin 3 mouse monoclonal antibody (Invitrogen, MA3-082) at a concentration of […] in PBS (30 μL per well). Plates were then washed three times with 300 μL wash buffer (0.05% TWEEN®-20, polyethylene glycol sorbitan monolaurate, in PBS) and blocked (Meso Scale Diagnostics, R93BA-1; 5% BSA in PBS) for 2 h at room temperature with rotational shaking and then washed three times with wash buffer.
(§1) Test compounds were serially diluted 3.16-fold in 100% DMSO to generate a 7-point concentration curve. Aliquots of 0.5 μL of diluted compounds were transferred to a 96-well flat bottom plate by a liquid handler. An aliquot of 0.5 μL DMSO was also transferred to separate wells and used as controls. Duplicate samples were set up for each compound concentration and for the DMSO control.
Cells were thawed and incubated in cell culture media (DMEM, 10% FBS, and 1% antibiotic cocktail) for 72 h. Cells were trypsinized, counted, and re-suspended to a concentration of 100,000 cells/mL in cell culture media. A 100 μL aliquot of the cell suspensions were plated at 10,000 cells per well in the compound containing 96 well microtiter plate and incubated for in a cell culture incubator (37° C., 5% CO2, 100% relative humidity). After 48 h, the medium was removed and 50-100 μL of lysis buffer (Meso Scale Diagnostics, R60TX-2) containing 1× halt protease inhibitor cocktail of (Thermo Scientific, Halt™ Protease Inhibitor Cocktail, 78430) per well was added to cells to provide a “cell lysate”. The plate was placed on a shaker at 4° C. for 30 minutes, then stored at −80° C.
Cell lysate samples (25 μL) were transferred to the antibody-coated MSD plate and incubated overnight at 4° C. After removal of the lysates, the plate was washed three times with wash buffer, and 25 μL of Ataxin 3 recombinant rabbit monoclonal antibody (Invitrogen, #702788) secondary antibody (diluted to 0.25 μg/mL in 0.05% TWEEN®-20 in blocking buffer) was added to each well and incubated with shaking for 1-2 h at room temperature. Following incubation with the secondary antibody, the wells were rinsed with wash buffer and then 25 μL of Anti Rabbit Antibody Goat SULFO-TAG Labeled (Meso Scale Diagnostics, R32AB-1) detecting antibody (diluted to 0.25 μg/mL in 0.05% TWEEN®-20 in blocking buffer) was added to each well and incubated with shaking for 1 h at room temperature. After rinsing three times with wash buffer, 150 μL of Read Buffer T with surfactant (tris-based buffer containing tripropylamine, Meso Scale Diagnostics, R92TC-1) were added to each empty well, and the plate was imaged on a SI 6000 imager (MSD) according to manufacturers' instructions provided for 96- or 384-well plates.

[2] = test system: ATXN3 Pre-mRNA (exon 4 skipping); assay: RT-qPCR Assay to Quantify Exon 4 Skipping in ATXN3 Pre-mRNA in Cells; assay type: cell-based; conditions: cells incubated with compound 24 h, normalised to GAPDH, 7-point concentration curve
Method: as §1
Cells were thawed and incubated in cell culture media (DMEM, 10% FBS, and 1% antibiotic cocktail) for 72 h. Cells were trypsinized, counted, and re-suspended to a concentration of 100,000 cells/mL in cell culture media. A 100 μL aliquot of the cell suspensions were plated at 10,000 cells per well in the compound containing 96 well microtiter plate and incubated for in a cell culture incubator (37° C., 5% CO2, 100% relative humidity).
After 24 h, media was aspirated from the cells and 50 μL of the RCL2 lysis buffer (10 mM Tris-HCL pH 7.4, 150 mM NaCl, 0.33% IGEPAL® CA-630) was added to each well and incubated at room temperature for 1 min. Chilled nuclease free water (50 μL per well) was added and the plates were immediately transferred on ice. After 1 min on ice, plates were frozen at −80° C. overnight.
Preparation of RT-qPCR Reaction Mixture:
An aliquot of 2 μL/well of the cell lysates was transferred using the liquid handler to the Armadillo 384-Well PCR plate containing 8 μL/well of the RT-qPCR reaction mixture that was prepared as detailed above. The plates were then sealed with MicroAmp™ Optical Adhesive Film followed by spinning down for 1 min and placed in the CFX384 thermocycler (BioRad).
The RT-qPCR was carried out at the following temperatures for the indicated time: • Step 1: 48° C. (30 min) • Step 2: 95° C. (10 min) • Step 3: 95° C. (15 sec) • Step 4: 60° C. (1 min); then, repeated Steps 3 and 4 for a total of 40 cycles.
The percent exon 4 skipping was calculated for each dose of compound treatment using Equations 1 and 2.
Data were fit to a dose response curve and the IC50 was interpolated using XLfit® statistical and curve fitting package.
An IC50 value between >2.0 μM and ≤3.0 μM is indicated by one star (*). […] IC50 value between >0.5 μM and ≤1.0 μM is indicated by four stars (****). An IC50 value ≤0.5 μM is indicated by five stars (*****).

SMILES	IC50 [1]	IC50 [2]	IC50 (average, total ATXN3 protein) [1]	IC50 (exon 4 skipping in ATXN3 pre-mRNA) [2]
CC(C)[C@H](N)Cc1cc2nc(Cl)nc(NCc3ccco3)c2s1 [Cpd 5, 6-[(2R)-2-amino-3-methylbutyl]-2-chloro-N-[(furan-2-yl)methyl]thieno[3,2-d]pyrimidin-4-amine]	≤ 500 nM	500 to 1000 nM		
CC(C)(C)[C@H](N)Cc1cc2nc(Cl)nc(NCc3ccco3)c2s1 [Cpd 7, 6-[(2R)-2-amino-3,3-dimethylbutyl]-2-chloro-N-[(furan-2-yl)methyl]thieno[3,2-d]pyrimidin-4-amine]			inactive	inactive
Cc1c(C[C@H](C)N)sc2c(NCc3ccco3)nc(Cl)nc12 [Cpd 12, 6-[(2S)-2-aminopropyl]-2-chloro-N-[(furan-2-yl)methyl]-7-methylthieno[3,2-d]pyrimidin-4-amine]	≤ 500 nM	≤ 500 nM		
Cc1nc(NCc2ccco2)c2sc(C[C@H](C)N)c(C)c2n1 [Cpd 15, 6-[(2S)-2-aminopropyl]-N-[(furan-2-yl)methyl]-2,7-dimethylthieno[3,2-d]pyrimidin-4-amine]	500 to 1000 nM	≤ 500 nM		
Cc1csc2c(NCc3ccncc3)nc(Cl)nc12 [Cpd 23, 2-chloro-7-methyl-N-[(pyridin-4-yl)methyl]thieno[3,2-d]pyrimidin-4-amine]			inactive	inactive
Cc1ccc(CNc2nc(Cl)nc3c(C)c(C[C@H](C)N)sc23)o1 [Cpd 24, 6-[(2S)-2-aminopropyl]-2-chloro-7-methyl-N-[(5-methylfuran-2-yl)methyl]thieno[3,2-d]pyrimidin-4-amine]	> 2000 nM	1500 to 2000 nM		
Cc1csc(CNc2nc(Cl)nc3c(C)c(C[C@H](C)N)sc23)n1 [Cpd 27, 6-[(2S)-2-aminopropyl]-2-chloro-7-methyl-N-[(4-methyl-1,3-thiazol-2-yl)methyl]thieno[3,2-d]pyrimidin-4-amine]		2000 to 3000 nM	inactive	
Cc1c(C[C@H](C)N)sc2c(NCc3cccs3)nc(Cl)nc12 [Cpd 28, 6-[(2S)-2-aminopropyl]-2-chloro-7-methyl-N-[(thiophen-2-yl)methyl]thieno[3,2-d]pyrimidin-4-amine]	≤ 500 nM	≤ 500 nM		
Cc1c(C[C@H](C)N)sc2c(NCc3nccs3)nc(Cl)nc12 [Cpd 29, 6-[(2S)-2-aminopropyl]-2-chloro-7-methyl-N-[(1,3-thiazol-2-yl)methyl]thieno[3,2-d]pyrimidin-4-amine]	≤ 500 nM	≤ 500 nM		
Cc1ccoc1CNc1nc(Cl)nc2c(C)c(C[C@H](C)N)sc12 [Cpd 30, 6-[(2S)-2-aminopropyl]-2-chloro-7-methyl-N-[(3-methylfuran-2-yl)methyl]thieno[3,2-d]pyrimidin-4-amine]	1500 to 2000 nM	1000 to 1500 nM		
Cc1cnc(CNc2nc(Cl)nc3c(C)c(C[C@H](C)N)sc23)s1 [Cpd 31, 6-[(2S)-2-aminopropyl]-2-chloro-7-methyl-N-[(5-methyl-1,3-thiazol-2-yl)methyl]thieno[3,2-d]pyrimidin-4-amine]	> 2000 nM	2000 to 3000 nM		
Cc1c(C[C@H](C)N)sc2c(NCc3ccc(F)s3)nc(Cl)nc12 [Cpd 33, 6-[(2S)-2-aminopropyl]-2-chloro-N-[(5-fluorothiophen-2-yl)methyl]-7-methylthieno[3,2-d]pyrimidin-4-amine]	≤ 500 nM	≤ 500 nM		
Cc1c(C[C@H](C)N)sc2c(NCc3ccncc3F)nc(Cl)nc12 [Cpd 35, 6-[(2S)-2-aminopropyl]-2-chloro-N-[(3-fluoropyridin-4-yl)methyl]-7-methylthieno[3,2-d]pyrimidin-4-amine]	≤ 500 nM	≤ 500 nM		
Cc1c(C[C@H](C)N)sc2c(NCc3ccco3)nc(Br)nc12 [Cpd 38, 6-[(2S)-2-aminopropyl]-2-bromo-N-[(furan-2-yl)methyl]-7-methylthieno[3,2-d]pyrimidin-4-amine]	≤ 500 nM	≤ 500 nM		
Cc1c(C[C@H](C)N)sc2c(NCc3ccno3)nc(Cl)nc12 [Cpd 39, 6-[(2S)-2-aminopropyl]-2-chloro-7-methyl-N-[(1,2-oxazol-5-yl)methyl]thieno[3,2-d]pyrimidin-4-amine]	≤ 500 nM	≤ 500 nM		
C[C@H](N)Cc1sc2c(NCc3ccco3)nc(Cl)nc2c1Br [Cpd 40, 6-[(2S)-2-aminopropyl]-7-bromo-2-chloro-N-[(furan-2-yl)methyl]thieno[3,2-d]pyrimidin-4-amine]	≤ 500 nM	≤ 500 nM		
Cc1c([C@H](C)N)sc2c(NCc3ccco3)nc(Cl)nc12 [Cpd 47, 6-[(1S)-1-aminoethyl]-2-chloro-N-[(furan-2-yl)methyl]-7-methylthieno[3,2-d]pyrimidin-4-amine]			inactive	inactive
Cc1c(C[C@@H](N)CCF)sc2c(NCc3ccco3)nc(Cl)nc12 [Cpd 51, 6-[(2S)-2-amino-4-fluorobutyl]-2-chloro-N-[(furan-2-yl)methyl]-7-methylthieno[3,2-d]pyrimidin-4-amine]	≤ 500 nM	≤ 500 nM		
Cc1c(C[C@@H]2CCOC(=O)N2)sc2c(NCc3ccco3)nc(Cl)nc12 [Cpd 52, (4S)-4-[(2-chloro-4-{[(furan-2-yl)methyl]amino}-7-methylthieno[3,2-d]pyrimidin-6-yl)methyl]-1,3-oxazinan-2-one]	> 2000 nM			inactive
Cc1c(C[C@H](C)N)sc2c(NCc3ncccn3)nc(Cl)nc12 [Cpd 55, 6-[(2S)-2-aminopropyl]-2-chloro-7-methyl-N-[(pyrimidin-2-yl)methyl]thieno[3,2-d]pyrimidin-4-amine]	> 2000 nM	2000 to 3000 nM		
Cc1c(C[C@@H](N)CO)sc2c(NCc3cccs3)nc(Cl)nc12 [Cpd 56, (2R)-2-amino-3-(2-chloro-7-methyl-4-{[(thiophen-2-yl)methyl]amino}thieno[3,2-d]pyrimidin-6-yl)propan-1-ol]	≤ 500 nM	≤ 500 nM		
Cc1c(C2CCNC2)sc2c(NCc3ccco3)nc(Cl)nc12 (stereo not drawn) [Cpd 57, 2-chloro-N-[(furan-2-yl)methyl]-7-methyl-6-(pyrrolidin-3-yl)thieno[3,2-d]pyrimidin-4-amine]			inactive	inactive
Cc1c(C[C@H](C)N)sc2c(NCc3ncccc3F)nc(Cl)nc12 [Cpd 59, 6-[(2S)-2-aminopropyl]-2-chloro-N-[(3-fluoropyridin-2-yl)methyl]-7-methylthieno[3,2-d]pyrimidin-4-amine]	1500 to 2000 nM	1000 to 1500 nM		
Cc1c(C[C@H](C)N)sc2c(NCc3cccnc3F)nc(Cl)nc12 [Cpd 60, 6-[(2S)-2-aminopropyl]-2-chloro-N-[(2-fluoropyridin-3-yl)methyl]-7-methylthieno[3,2-d]pyrimidin-4-amine]	> 2000 nM	2000 to 3000 nM		
